Values joined by “and” are separate entries in the source; they are usually repeats but may differ in a detail not shown here. Equal entries are not always repeated. Where two headings read alike, the source gives them in different places. One block for each compound: values may come before it.
Tests used:
Type in all cases: physicochemical
[1] = Solubility of processing compounds (stated in the description)
[2] = Equilibrium level of MCH in circulated potassium carbonate solution on dilution or evaporation (Example 1); conditions: potassium carbonate pH 10.5
Procedure: A circulation system of about 500 ml capacity was set up in which solid N-monocyclohexyl hydroxylamine (MCH) was retained behind a removable filter paper filter. The solution circulated was potassium carbonate at pH=10.5. The solution was left to circulate for 30 minutes and the amount of MCH in solution was determined by removing the paper filter that retained the MCH, drying and weighing it. […] The volume was increased by increments of 10%. In a second part of the experiment most of the solution was removed from the system and evaporated to reduce its volume, again in increments of 10%. Solid MCH came out of solution and was collected on the filter and weighed as before.

[3] = Keeping test of continuously aerated developers with limited-solubility antioxidants, analysed for CD3 content (Example 2); conditions: about 0.029 molar antioxidant added, developer pH 10.05; rest solid swirling in solution
Procedure: The compounds CSD and MCH were compared with diethyl hydroxylamine at equimolar levels in a developer of the composition shown in Table 2.
The antioxidant level was equivalent to 3.0 ml/l diethyl hydroxylamine (85%); which is about 0.029 molar. The three developers were as follows;
These developers were placed in 500 ml measuring cylinders and stirred continuously with magnetic stirrers to create a vortex depth of about 5 mm in each case in order to ensure continuous aeration.

Compound: ONC1CCCCC1 [MCH, Mono-N-cyclohexylhydroxylamine]
solubility ([1]; aqueous buffer, at developer pH (10.0)): 3900 µg/mL to 4000 µg/mL and ~26000 µM
time for the MCH level to adjust itself to the initial level after dilution or evaporation [2]: ≤ 30 min
MCH in Solution ([2]; volume 70 % relative to initial (evaporation)): 4.03 g/L
MCH in Solution ([2]; volume 80 % relative to initial (evaporation)): 3.92 g/L
MCH in Solution ([2]; volume 90 % relative to initial (evaporation)): 3.88 g/L
MCH in Solution ([2]; volume 100 % relative to initial, 30 minutes): 3.80 g/1
MCH in Solution ([2]; volume 110 % relative to initial, 30 minutes): 3.81 g/L
MCH in Solution ([2]; volume 120 % relative to initial, 30 minutes): 3.87 g/L
MCH in Solution ([2]; volume 130 % relative to initial, 30 minutes): 4.11 g/L
MCH in Solution ([2]; volume 140 % relative to initial, 30 minutes): 4.05 g/L
MCH in Solution ([2]; volume 150 % relative to initial, 30 minutes): 3.96 g/L
share of the antioxidant in solution in the developer [3]: About 90%

Compound: CCCNc1nc(NO)nc(NO)n1 [CSD, 4,5-dihydroxylamino-2-propylamino-1,3,5-triazine]
solubility [1]: 500 µg/mL to 1000 µg/mL and ~5000 µM

Compound: CCN(O)CC [Diethyl hydroxylamine, reference compound]
solubility in water [1]: essentially miscible in all proportions with water
share of the antioxidant in solution in the developer [3]: completely in solution

Second part, the compound after the results:

solubility in water [1]: too soluble
Compound: CC(C)(C)NO [mono-t-butyl-hydroxylamine, reference compound]

solubility in water [1]: almost entirely insoluble in water
Compound: ON(Cc1ccccc1)Cc1ccccc1 [dibenzyl-hydroxylamine, reference compound]
